Where two headings read alike, the source gives them in different places.
Legend:
[1] = format: physicochemical; set-up: key to Fibril / Fibril Formation / TEM 2cat / Fibril: 1 = fibrils present; 0 non-fibrillar structures; conditions: for Fibril / Fibril Formation: TEM, 1 mg/mL, uranyl acetate stain, qualitative
[2] = format: physicochemical; conditions: for ThT Cat. / ThT-Fluorescence (categorical): ThT-active if fluorescence at least twice the control
Outline: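 Fibrils (1 mg/mL solution) were mixed with 50 µM ThT in PBS for 15 min at RT, and fluorescence was read at λex 440/λem 488 nm against a PBS blank, as a triplicate mean ± SD. Zeta potential came from electrophoretic mobility (Smoluchowski) after 1 d aggregation at 1 mg/mL in PBS pH 7.4, diluted into 1 mM KCl.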

[3] = system: HIV-1 infection of TZM-bl cells; assay: HIV-1 infectivity enhancement assay, β-galactosidase luminescence; format: cell-based
[4] = log10 of infection relative to EF-C, Figure 7B
[5] = n-fold infection vs virus only, relative to that of EF-C, 1.3 µM peptide
[6] = infectivity class (low / medium / high) of each library peptide; main list in c1-c6, same classes repeated in sub-lists of sequences containing the hydrophobicity/charge patterns P+,H0,P+,H0,P0,H0,P0; P+,H0,P0,H0,P0,H0,P0; P+,H0,P0,H0
[7] = log10 of HIV-1 infection of TZM-bl cells relative to EF-C; Fig S15 source data; asymmetric std dev errors
[8] = relative to blank 42.1851851851852 a.u.
[9] = Feb2021 run; infectivity n-fold relative to virus alone
[10] = Feb2021 run; log10 of infectivity relative to EF-C
[11] = Feb2021 run; n-fold infectivity relative to EF-C
[12] = log10 of infection relative to EF-C, Figure 6C
[13] = infectivity class (low / medium / high) of the peptide in the sequence-pattern analysis, Fig. S22-A4; class limits not given
[14] = fibril-forming peptides with positive zeta-potential, low count rate
[15] = Fig S8 panels B, D; infectivity enhancement relative to EF-C
[16] = Fig S8 panels B, D; infectivity n-fold relative to virus alone

Substance: KYFIL [reference compound]
- Fibril / Fibril Formation [1]: 0
- ThT Cat. / ThT-Fluorescence (categorical) [2]: 0 (ThT-inactive (N-Fold <2))
- Log10 Infection Rel EF-C [3, 4]: -1.14
- Inf. rel. EF-C [3, 5]: 0.07

Substance: NMWQKIKQII [JG8]
- TEM: 1= fibrils, 0= aggregates (micelle), 0.5 = aggregates and fibrils, -1 = nothing obersved, STD prep ([1]; FigS26): 0
- Tht category (> 1.5 to blank = +) ([2]; FigS26): 0 (Tht category (> 1.5 to blank = +))
- infectivity [3, 6]: low
- Log10 Inf. rel. to EF-C [3, 7]: -1.5971

Substance: KFKFQFN [BL7]
- TEM: 1= fibrils, 0= aggregates (micelle), 0.5 = aggregates and fibrils, -1 = nothing obersved, STD prep [1]: 1
- Tht category (> 1.5 to blank = +) ([2]; category 1/0): 0 (ThT-inactive (N-Fold <2))
- Tht rel to blank (42.1851851851852) [2, 8]: 1.056
- n-fold to virus (Feb2021) [3, 9]: 0.757
- Log10 of Rel to EFC (Feb2021) [3, 10]: -1.744
- Rel-to EFC (Feb-2021) [3, 11]: 0.01802
- infectivity [3, 6]: low
- Log10 Inf. rel. to EF-C [3, 7]: -1.744

Substance: KIKIWIW
- Fibril / Fibril Formation [1]: 1
- ThT Cat. / ThT-Fluorescence (categorical) [2]: 0 (ThT-inactive (N-Fold <2))
- Log10 Infection Rel EF-C [3, 12]: -0.4875
- Inf. rel. EF-C [3, 5]: 0.33

Substance: RIRFHIW
- Fibril / Fibril Formation [1]: 0
- ThT Cat. / ThT-Fluorescence (categorical) [2]: 0 (ThT-inactive (N-Fold <2))
- Log10 Infection Rel EF-C [3, 12]: -1.984
- Inf. rel. EF-C [3, 5]: 0.01

Substance: KIKIQINMWWWQ [VH12]
- TEM: 1= fibrils, 0= aggregates (micelle), 0.5 = aggregates and fibrils, -1 = nothing obersved, STD prep [1]: 0.5
- Tht category (> 1.5 to blank = +) ([2]; category 1/0): 0 (ThT-inactive (N-Fold <2))
- Tht rel to blank (42.1851851851852) [2, 8]: 1.301
- n-fold to virus (Feb2021) [3, 9]: 115.5
- Log10 of Rel to EFC (Feb2021) [3, 10]: 0.4391
- Rel-to EFC (Feb-2021) [3, 11]: 2.749
- infectivity [3, 6]: high
- infectivity [3, 13]: high
- Log10 Inf. rel. to EF-C [3, 7]: 0.4391

Substance: KIKIKIKIWW [TM21]
- TEM: 1= fibrils, 0= aggregates (micelle), 0.5 = aggregates and fibrils, -1 = nothing obersved, STD prep [1]: 0
- Tht category (> 1.5 to blank = +) ([2]; category 1/0): 1 (ThT. Cat is 1, if Rel. ThT >2)
- Tht rel to blank (42.1851851851852) [2, 8]: 3.538
- n-fold to virus (Feb2021) [3, 9]: 15.73
- Log10 of Rel to EFC (Feb2021) [3, 10]: -0.4266
- Rel-to EFC (Feb-2021) [3, 11]: 0.3744
- infectivity [3, 6]: medium
- Log10 Inf. rel. to EF-C [3, 7]: -0.4266

Substance: GYVIIK [reference compound]
- Fibril / Fibril Formation [1]: 0
- ThT Cat. / ThT-Fluorescence (categorical) [2]: 0 (ThT-inactive (N-Fold <2))
- infectivity enhancement, in words [3, 14]: do not enhance infectivity
- Log10 Infection Rel EF-C [3, 4]: -0.99
- Inf. rel. EF-C [3, 5]: 0.10

Substance: IKFLSVN [reference compound]
- Fibril / Fibril Formation [1]: 1
- ThT Cat. / ThT-Fluorescence (categorical) [2]: 0 (ThT-inactive (N-Fold <2))
- infectivity enhancement, in words [3, 14]: do not enhance infectivity
- Log10 Infection Rel EF-C [3, 4]: -1.16
- Inf. rel. EF-C [3, 5]: 0.07

Substance: KIKIQIRGD [MG6]
- TEM: 1= fibrils, 0= aggregates (micelle), 0.5 = aggregates and fibrils, -1 = nothing obersved, STD prep ([1]; FigS26): 1
- Tht category (> 1.5 to blank = +) ([2]; FigS26): 1 (Tht category (> 1.5 to blank = +))
- infectivity [3, 6]: low
- infectivity [3, 13]: low
- Log10 Inf. rel. to EF-C [3, 7]: -1.678

Substance: CKFKFPF
- Fibril / Fibril Formation [1]: 0
- ThT Cat. / ThT-Fluorescence (categorical) [2]: 0 (ThT-inactive (N-Fold <2))
- Inf. rel. EF-C ([3]; HIV-1 infection relative to EF-C; Fig 23 plot, panels A and B; mean of 3 values): 0.02481
- Inf. rel. EF-C ([3]; HIV-1 infection relative to EF-C; Fig 23 plot, single data point, replicate 1): 0.05139
- Inf. rel. EF-C ([3]; HIV-1 infection relative to EF-C; Fig 23 plot, single data point, replicate 2): 0.01572
- Inf. rel. EF-C ([3]; HIV-1 infection relative to EF-C; Fig 23 plot, single data point, replicate 3): 0.007313
- Log10 Infection Rel EF-C [3, 12]: -1.6054
- Inf. rel. EF-C [3, 5]: 0.02

Substance: KIKQIIN [JGA3]
- TEM: 1= fibrils, 0= aggregates (micelle), 0.5 = aggregates and fibrils, -1 = nothing obersved, STD prep [1]: 0.5
- Tht rel to blank (42.1851851851852) ([2]; ThT fluorescence relative to blank (42.1851851851852 a.u.)): 1.148
- Rel-to EFC [3, 15]: 0.0398
- n-fold to virus [3, 16]: 1.672
- infectivity [3, 6]: low
- Rel-to EFC (Feb-2021) ([3]; infectivity enhancement relative to EF-C (=1); Feb2021 run): 0.0398
- n-fold to virus (Feb2021) ([3]; infectivity n-fold relative to virus only; Feb2021 run): 1.672
- Log10 Inf. rel. to EF-C [3, 7]: -1.4
- Log10 of Rel to EFC (Feb2021) ([3]; log10 of infectivity relative to EF-C; Feb2021 run): -1.4

Substance: IFQINS [reference compound]
- Fibril / Fibril Formation [1]: 1
- ThT Cat. / ThT-Fluorescence (categorical) [2]: 1 (ThT. Cat is 1, if Rel. ThT >2)
- Log10 Infection Rel EF-C [3, 4]: -1.21
- Inf. rel. EF-C [3, 5]: 0.06

Substance: RGDSGGGGGGKIKIQIC [TM114 / RC17]
- Rel-to EFC [3, 15]: 0.8654
- n-fold to virus [3, 16]: 36.36
- infectivity [3, 13]: high
- Log10 Inf. rel. to EF-C [3, 7]: -0.0628

Source: paper PMC10447463, “Data-mining unveils structure–property–activity correlation of viral infectivity enhancing self-assembling peptides” (Nature Communications, 2023)
